Measurements reported in US6015805A, “17β-nitro-11β-arylisteroids and their derivatives having agonist or antagonist hormonal properties” (Research Triangle Research North Carolina, priority 1999, dated 2000).

Tests used:
[1] = molecular target: T1, human progesterone hormone receptor (hPR) (Homo sapiens, UniProt P06401); assay: Receptor binding (human), inhibition of [^3 H]-R5020 binding; conditions: cytosol from human T-47D cells; 0.4 nM [^3 H]-R5020; 4 hours at 4° C.
T1 construct: The receptor was obtained in cytosol from human T-47D breast cells; endogenous in cells; host or cells: T-47D human breast cells (cytosol)
T1 sequence (P06401 1-933): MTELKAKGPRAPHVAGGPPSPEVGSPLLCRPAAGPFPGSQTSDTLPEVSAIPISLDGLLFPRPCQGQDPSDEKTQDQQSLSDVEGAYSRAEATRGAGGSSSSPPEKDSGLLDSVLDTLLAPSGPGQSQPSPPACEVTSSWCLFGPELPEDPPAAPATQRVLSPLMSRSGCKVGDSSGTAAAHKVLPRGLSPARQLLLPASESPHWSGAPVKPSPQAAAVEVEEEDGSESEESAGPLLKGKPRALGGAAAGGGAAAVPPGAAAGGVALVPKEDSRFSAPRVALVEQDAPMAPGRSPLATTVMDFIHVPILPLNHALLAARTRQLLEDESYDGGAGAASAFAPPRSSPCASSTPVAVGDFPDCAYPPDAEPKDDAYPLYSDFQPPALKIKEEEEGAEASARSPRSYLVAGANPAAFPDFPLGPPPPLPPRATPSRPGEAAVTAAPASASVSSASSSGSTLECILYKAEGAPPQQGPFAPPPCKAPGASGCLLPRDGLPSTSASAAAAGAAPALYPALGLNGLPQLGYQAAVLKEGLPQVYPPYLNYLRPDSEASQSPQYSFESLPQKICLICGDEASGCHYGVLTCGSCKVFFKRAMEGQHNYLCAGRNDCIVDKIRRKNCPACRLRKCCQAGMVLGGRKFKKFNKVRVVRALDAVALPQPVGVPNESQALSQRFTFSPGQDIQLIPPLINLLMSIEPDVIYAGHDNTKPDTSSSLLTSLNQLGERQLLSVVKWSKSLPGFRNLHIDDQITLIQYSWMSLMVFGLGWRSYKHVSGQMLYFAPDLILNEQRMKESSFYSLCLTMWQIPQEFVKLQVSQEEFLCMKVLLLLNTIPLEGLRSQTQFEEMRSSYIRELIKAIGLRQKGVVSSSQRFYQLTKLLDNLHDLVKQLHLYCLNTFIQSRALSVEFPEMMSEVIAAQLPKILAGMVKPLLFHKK
Protocol: (§1) The affinity of the compounds for hormone receptors for progestins and glucocorticoids from rabbits was determined by standard procedures similar to those that have been described in C. E. Cook, et al., Human Reproduction, Volume 9, supplement 1, pp. 32-39 (1994). However, the source of the glucocorticoid receptor was the thymus of the estrogen-primed immature female rabbit. The affinity of the compounds for the human progesterone hormone receptor was determined by standard procedures similar to those that have been described in Horwitz, et al., Cell, 28: 633-42 (1982) and Mockus, et al., Endocrinology, 110: 1564-71 (1982). The receptor was obtained in cytosol from human T-47D breast cells and [^3 H]-R5020 was used as the radioligand. T47D cells (1 billion/mL) were homogenized in TEDG buffer (10 mM Tris, 1.5 mM EDTA, 1 mM dithiothreitol, 1 mM sodium molybdate, and 10% glycerol) using a Dounce pestle A, and the homogenate was centrifuged at 34,000×g for 1 hour. The supernatant was stored at -80° C. An aliquot of receptor preparation was combined with test compound, 0.4 nM [^3 H]-R5020, and TEDG buffer to a final volume of 150 ,μL and incubated for 4 hours at 4° C. in microtiter plates. At the end of incubation 40 μL 40% polyethylene glycol and 15 μL 1% human gamma globulin was added to the incubate and the contents of each well were harvested onto double thick B filter mats (Wallac LKB) using a TomTec harvester. A film of Meltilux scintillant wax was applied to the dried filter mats and the mats were counted in a scintillation counter to determine inhibition of [^3 H]-R5020 binding. Data are expressed as lC50 values, i.e., the concentration of compound that inhibits radioligand binding by 50%.

rabbits [2] = assay: McGinty assay (progestational activity, test compound alone); assay type: in vivo, rabbit; parameters: key: McPhail scoring scale for progestational endometrial response
Protocol: (§2) Progestational activity and antiprogestational activity were determined in rabbits by means of the McGinty test (test compound alone, procedure of McGinty et al., Endocrinology, 24: 829-832 (1939)) or anti-McGinty test (test compound plus progesterone, procedure of Tamara et al., Jpn. J. Fertil Steril 24: 48-81 (1979)). Results were scored according to McPhail (McPhail, J Physiol., 83: 146 (1934)). These are standard procedures known to those skilled in the art. The results of these assays are shown in Tables 4 (agonist activity) and 5 (antagonist activity). […] Physiol, 83: 146 (1934)).

rabbits [3] = assay: Anti-McGinty assay (antiprogestational activity, test compound plus progesterone); assay type: in vivo, rabbit; parameters: key to McPhail Index, Anti-McGinty Assay, Standard / McPhail Index, Anti-McGinty Assay (Antagonist): McPhail scoring scale for progestational endometrial response; conditions: for McPhail Index, Anti-McGinty Assay (Antagonist): plus progesterone
Protocol: as §2

progestin receptor (rPR) = molecular target: T2, progestin receptor (rPR) (Oryctolagus cuniculus, UniProt P06186); assay: Receptor binding (rabbit), progestin receptor; conditions: for Ratio PR/GR: ratio of rPR to rGR relative affinities; for Relative Binding Affinity, rPR, Relative Affinity (Progesterone): relative to progesterone = 100, rabbit progestin receptor
T2 construct: hormone receptors for progestins and glucocorticoids from rabbits; from tissue; host or cells: rabbit
T2 sequence (P06186 1-930): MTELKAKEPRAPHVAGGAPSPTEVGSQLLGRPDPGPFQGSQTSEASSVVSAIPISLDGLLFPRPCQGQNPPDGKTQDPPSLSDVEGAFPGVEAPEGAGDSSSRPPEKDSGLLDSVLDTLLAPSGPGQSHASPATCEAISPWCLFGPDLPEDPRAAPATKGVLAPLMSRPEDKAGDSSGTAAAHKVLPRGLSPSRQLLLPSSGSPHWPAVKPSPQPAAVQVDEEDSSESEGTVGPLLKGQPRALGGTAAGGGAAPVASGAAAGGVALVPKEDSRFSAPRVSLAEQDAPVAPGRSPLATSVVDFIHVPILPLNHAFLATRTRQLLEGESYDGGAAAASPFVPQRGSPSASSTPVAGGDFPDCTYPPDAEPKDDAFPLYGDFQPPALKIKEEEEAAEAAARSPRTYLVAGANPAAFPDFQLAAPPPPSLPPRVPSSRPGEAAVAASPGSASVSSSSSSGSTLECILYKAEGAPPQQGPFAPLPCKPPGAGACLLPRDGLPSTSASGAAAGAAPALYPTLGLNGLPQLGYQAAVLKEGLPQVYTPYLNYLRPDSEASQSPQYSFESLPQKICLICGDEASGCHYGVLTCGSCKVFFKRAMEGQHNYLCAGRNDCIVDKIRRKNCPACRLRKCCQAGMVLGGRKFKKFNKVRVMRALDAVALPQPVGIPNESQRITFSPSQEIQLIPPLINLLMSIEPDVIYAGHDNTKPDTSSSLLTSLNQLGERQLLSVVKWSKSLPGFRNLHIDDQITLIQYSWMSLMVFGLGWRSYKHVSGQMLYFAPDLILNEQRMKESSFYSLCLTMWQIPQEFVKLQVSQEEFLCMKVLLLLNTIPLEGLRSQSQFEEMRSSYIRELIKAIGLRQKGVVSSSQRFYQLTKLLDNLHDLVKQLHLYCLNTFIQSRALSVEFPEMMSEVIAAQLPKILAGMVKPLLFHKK

[4] = molecular target: T3, glucocorticoid receptor (rGR) (Oryctolagus cuniculus, UniProt P59667); assay: Receptor binding (rabbit), glucocorticoid receptor; conditions: relative to dexamethasone = 100
T3 construct: the source of the glucocorticoid receptor was the thymus of the estrogen-primed immature female rabbit; from tissue; host or cells: thymus of the estrogen-primed immature female rabbit
T3 sequence (P59667 1-772): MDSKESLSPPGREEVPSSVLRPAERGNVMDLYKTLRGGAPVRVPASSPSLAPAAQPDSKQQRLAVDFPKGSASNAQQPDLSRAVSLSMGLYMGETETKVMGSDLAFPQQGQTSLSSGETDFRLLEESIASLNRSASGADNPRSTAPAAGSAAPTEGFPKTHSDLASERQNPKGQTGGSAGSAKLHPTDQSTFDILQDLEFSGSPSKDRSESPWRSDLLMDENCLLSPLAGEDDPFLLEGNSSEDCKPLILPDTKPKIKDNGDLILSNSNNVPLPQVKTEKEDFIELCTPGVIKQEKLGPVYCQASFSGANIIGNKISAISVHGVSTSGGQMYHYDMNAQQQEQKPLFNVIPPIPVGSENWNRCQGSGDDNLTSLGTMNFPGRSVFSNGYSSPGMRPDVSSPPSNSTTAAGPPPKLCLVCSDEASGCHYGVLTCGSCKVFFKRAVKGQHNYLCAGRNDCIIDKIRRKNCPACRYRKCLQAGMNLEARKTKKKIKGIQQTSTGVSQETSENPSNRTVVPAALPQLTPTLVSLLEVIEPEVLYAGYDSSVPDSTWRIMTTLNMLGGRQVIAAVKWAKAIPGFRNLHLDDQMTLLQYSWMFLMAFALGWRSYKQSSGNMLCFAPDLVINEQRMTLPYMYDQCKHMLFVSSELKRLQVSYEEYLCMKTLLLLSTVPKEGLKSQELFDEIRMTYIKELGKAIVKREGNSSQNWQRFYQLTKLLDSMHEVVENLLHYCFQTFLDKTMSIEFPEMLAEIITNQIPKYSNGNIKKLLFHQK
Protocol: as §1

[5] = tested on: estrogen-primed immature female rabbits; assay: Anti-Clauberg assay (oral test compound with subcutaneous progesterone); assay type: in vivo, rabbit; conditions: given orally together with subcutaneous progesterone; McPhail Index
glucocorticoid receptor = conditions: in words; cited from earlier work

With CN(C)c1ccc([C@H]2C[C@@]3(C)[C@@H](CC[C@@]34CCC=[N+]4[O-])[C@@H]3CCC4=CC(=O)CCC4=C32)cc1 [II 4-Me2 N H O H -- H, 11β-[4-(N,N-Dimethylamino)phenyl]-3',4'-dihydro-1'-oxo-spiro[estra-4,9-dien-17β,2'(2'H)-pyrrole]-3-one] the IC50 [1] was 18 nM, the “McPhail Index, McGinty Assay (Agonist)” value (rabbits [2]; dose 0.3 micrograms) was 0 ± 0 and the “McPhail Index, McGinty Assay (Agonist)” value (rabbits [2]; dose 3 micrograms) was 0 ± 0. For the same compound, the “McPhail Index, McGinty Assay (Agonist)” value (rabbits [2]; dose 30 micrograms) was 0 ± 0, the “McPhail Index, Anti-McGinty Assay (Antagonist)” value (“McPhail Index … (Antagonist)” for short) (rabbits [3]; dose 0.3 micrograms) was 2.0 ± 0.11 and the “McPhail Index … (Antagonist)” value (rabbits [3]; dose 3 micrograms) was 1.83 ± 0.2. The “McPhail Index … (Antagonist)” value (rabbits [3]; dose 30 micrograms) was 0.23 ± 0.23.

For CSc1ccc([C@H]2C[C@@]3(C)[C@@H](CC[C@]3(CCCO)[N+](=O)[O-])[C@@H]3CCC4=CC(=O)CCC4=C32)cc1 [I 4-MeS H O H --(CH2)3 OH, 17α-(3-Hydroxypropyl)-11β-[4-(methylthio)phenyl]-17β-nitroestra-4,9-dien-3-one], the “Ratio PR/GR” value (progestin receptor (rPR)) was 20.3, the “Relative Binding Affinity, rPR, Relative Affinity (Progesterone)” value (“Relative Binding Affinity, rPR” for short) (progestin receptor (rPR)) was 61 and the “Relative Binding Affinity, rGR, Relative Affinity (Dexamethasone)” value (from here on “Relative Binding Affinity, rGR”) [4] was 3.

With C[S+]([O-])c1ccc([C@H]2C[C@@]3(C)[C@@H](CC[C@]3(CCCO)[N+](=O)[O-])[C@@H]3CCC4=CC(=O)CCC4=C32)cc1 (stereo partly drawn) [I 4-MeS(O) H O H --(CH2)3 OH, 17α-(3-Hydroxypropyl)-11β-[4-(methylsulfinyl)phenyl]-17β-nitroestra-4,9-dien-3-one] the “Ratio PR/GR” value (progestin receptor (rPR)) was over 10, the “Relative Binding Affinity, rPR” value (progestin receptor (rPR)) was 23 and the “Relative Binding Affinity, rGR” value [4] was under 2.

For CC#C[C@]1([N+](=O)[O-])CC[C@H]2[C@@H]3CCC4=CC(=O)CCC4=C3[C@@H](c3ccc(N(C)C)cc3)C[C@@]21C [I 4-Me2 N H O H --CC--CH3, 11β-[4-(N,N-Dimethylamino)phenyl]-17β-nitro-17α-(1-propynyl)estra-4,9-dien-3-one], the “Ratio PR/GR” value (progestin receptor (rPR)) was 1.5, the “Relative Binding Affinity, rPR” value (progestin receptor (rPR)) was 55 and the “Relative Binding Affinity, rGR” value [4] was 36. For the same compound, the “antiprogestational activity in the anti-Clauberg assay” value [5] was “potent antiprogestin”.

With CSc1ccc([C@H]2C[C@@]3(C)[C@@H](CC[C@]3(C=CCO)[N+](=O)[O-])[C@@H]3CCC4=CC(=O)CCC4=C32)cc1 [I 4-MeS H O H CH=CHCH2 OH] the “Relative Binding Affinity, rPR” value (progestin receptor (rPR)) was 32.

In the case of CC(=O)c1ccc(C2CC3(C)C(CCC34CCC(C)=[N+]4[O-])C3CCC4=CC(=O)CCC4=C23)cc1 (stereo not drawn) [II 4-CH3 CO H O H -- CH3, 11β-(4-Acetylphenyl)-3',4'-dihydro-5'-methyl-1'-oxo-spiro[estra-4,9-dien-17β,2'(2'H)-pyrrole]-3-one], the “Relative Binding Affinity, rPR” value (progestin receptor (rPR)) is reported as 21.

In the case of CN(C)c1ccc([C@H]2C[C@@]3(C)[C@@H](CC[C@]3(/C=C/CO)[N+](=O)[O-])[C@@H]3CCC4=CC(=O)CCC4=C32)cc1 [I 4-Me2 N H O H CH=CHCH2 OH, 11β-[4-(N,N-Dimethylamino)phenyl]-17α-[(E)-1-(3-hydroxy)propenyl]-17β-nitroestra-4,9-dien-3-one], the “Ratio PR/GR” value (progestin receptor (rPR)) is reported as 3.5, the “Relative Binding Affinity, rPR” value (progestin receptor (rPR)) is reported as 56 and the “Relative Binding Affinity, rGR” value [4] is reported as 16.

For CC#C[C@]1(O)CC[C@H]2[C@@H]3CCC4=CC(=O)CCC4=C3[C@@H](c3ccc(N(C)C)cc3)C[C@@]21C [mifepristone], the “glucocorticoid or antiglucocorticoid activity as side-effect” value (glucocorticoid receptor) is listed as “significant side-effect”.

For CC(=O)[C@H]1CC[C@H]2[C@@H]3CCC4=CC(=O)CC[C@]4(C)[C@H]3CC[C@]12C [Progesterone, reference compound], the “McPhail Index, McGinty Assay, Standard” value (rabbits [2]; standard, dose not given) was 2.45 ± 0.14 and the “McPhail Index, Anti-McGinty Assay, Standard” value (rabbits [3]; standard, dose not given) was 2.45 ± 0.14.
